From article PMC7031741 (Journal of Ginseng Research, 2018) come the findings set out here.

This assay addresses ABCB1 (P-glycoprotein, P-gp) (Homo sapiens, UniProt P08183). Description: Pgp-Glo ATPase assay: inhibition of verapamil-stimulated ABCB1 ATPase. It counts as biochemical.

Chain of ABCB1 (P-glycoprotein, P-gp) (P08183 whole entry): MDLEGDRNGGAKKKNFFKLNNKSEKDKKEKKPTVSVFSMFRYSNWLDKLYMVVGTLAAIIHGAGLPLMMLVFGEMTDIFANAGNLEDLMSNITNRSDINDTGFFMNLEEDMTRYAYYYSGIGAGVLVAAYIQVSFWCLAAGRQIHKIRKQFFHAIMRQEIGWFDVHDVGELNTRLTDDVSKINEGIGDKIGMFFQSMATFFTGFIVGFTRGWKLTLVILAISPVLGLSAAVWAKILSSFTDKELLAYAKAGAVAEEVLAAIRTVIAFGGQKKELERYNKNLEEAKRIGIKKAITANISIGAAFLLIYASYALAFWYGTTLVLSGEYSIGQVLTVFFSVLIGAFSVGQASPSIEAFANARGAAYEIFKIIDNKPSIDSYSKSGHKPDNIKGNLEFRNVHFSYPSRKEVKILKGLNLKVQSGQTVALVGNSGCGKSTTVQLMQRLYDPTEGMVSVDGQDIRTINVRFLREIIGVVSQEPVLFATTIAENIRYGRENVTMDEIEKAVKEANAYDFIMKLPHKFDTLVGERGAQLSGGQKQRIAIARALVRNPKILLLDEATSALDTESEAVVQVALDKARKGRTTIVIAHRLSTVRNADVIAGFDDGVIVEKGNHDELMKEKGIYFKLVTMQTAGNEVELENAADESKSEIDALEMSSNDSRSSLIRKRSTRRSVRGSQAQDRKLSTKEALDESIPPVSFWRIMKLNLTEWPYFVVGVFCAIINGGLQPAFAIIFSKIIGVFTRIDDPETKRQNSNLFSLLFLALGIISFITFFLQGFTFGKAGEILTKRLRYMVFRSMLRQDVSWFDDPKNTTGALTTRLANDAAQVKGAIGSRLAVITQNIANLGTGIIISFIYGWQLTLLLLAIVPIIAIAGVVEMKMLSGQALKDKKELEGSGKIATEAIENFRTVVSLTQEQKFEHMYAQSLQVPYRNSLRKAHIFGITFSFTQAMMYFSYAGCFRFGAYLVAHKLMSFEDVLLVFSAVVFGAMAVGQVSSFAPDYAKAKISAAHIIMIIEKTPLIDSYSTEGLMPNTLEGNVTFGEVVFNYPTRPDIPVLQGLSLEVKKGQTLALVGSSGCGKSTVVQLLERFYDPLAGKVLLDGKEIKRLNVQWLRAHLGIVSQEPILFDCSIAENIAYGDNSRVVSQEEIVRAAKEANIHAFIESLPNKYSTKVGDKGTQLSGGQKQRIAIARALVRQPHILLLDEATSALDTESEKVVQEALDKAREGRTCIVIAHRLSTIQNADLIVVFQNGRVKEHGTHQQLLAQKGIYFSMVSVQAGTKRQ

As to `CC(C)=CC/C=C(\C)[C@H]1CC[C@]2(C)[C@@H]1[C@H](O)C[C@@H]1[C@@]3(C)CC[C@H](O[C@@H]4O[C@H](CO)[C@@H](O)[C@H](O)[C@H]4O[C@@H]4O[C@H](CO)[C@@H](O)[C@H](O)[C@H]4O)C(C)(C)[C@@H]3CC[C@]12C` [Rg5, Ginsenoside Rg5], it took 9.16 µM to reach half-maximal inhibition (IC50).
